Experimental data: US20230121797A1, “A COMBINATION OF FLAVONOIDS AND SPHINGOSINE 1 PHOSPHATE LYASE INHIBITORS FOR THE TREATMENT OF LUNG INFLAMMATION” (AC BIOSCIENCE SA, priority 2020, published 2023)
Read-outs that look alike come from different tables or passages of the source.

Key:
PMN = assay: oxygen consumption of triggered PMN; type: cell-based; details: triggered by PMA, FMLP and opsonized zymosan; data not shown
Human neutrophils [1] = assay: cytochrome c reduction rate (superoxide anion production) by activated neutrophils; type: cell-based; details: Resting neutrophils
neutrophils = assay: activation of neutrophils stimulated by LPS or PMA; type: cell-based
Text: Flavonoids are the largest group of naturally occurring polyphenolic compounds which have shown diverse biological activities depending of their chemical structure including anti-viral activities against a variety of viruses and potent immune-modulating and inflammatory activities. Among flavonoids, Quercetin, and its bioavailable derivatives such as isoquercetin, offer good perspectives to develop new therapeutics to treat cancer, viral infection and pathogenic inflammation (reviewed in Li et al, 2016). Flavonoids have potent anti-inflammatory activities.

Human neutrophils [2] = assay: ROS production by activated neutrophils, luminol chemiluminescence; type: cell-based; details: for inhibition of the ROS production: DHQ 1p M in the assay medium
Method: ROS production is measured using a chemiluminescence standard procedure: briefly, One hundred microliters of human neutrophils (4×10^6/mL) were primed with TNF-α at 37° C. for 25 minutes. 100 μL luminol (1 μM final concentration) and HRP (62.5 U/mL final concentration) in HBSS were added, and 150-μL aliquots were transferred to a prewarmed 96-well luminometer plate. Light emission was recorded by a Berthold MicroLumat Plus luminometer (Berthold Technologies, Hartfordshire, United Kingdom) (data output is in relative light units per second).
In order to further investigate the effect of DHQ on the oxidative burst of neutrophils, the measurement of the ROS production by chemoluminescence has been used which detect both surperoxide anion and hydrogen peroxide. […] This inhibitory effect can be considered as very efficient regarding the fact that the addition of 1p M in the assay medium results in around 80% inhibition of the ROS production in both experiments. The inhibition is not due to a ROS scavenging (as measured by cyt. C reduction) but due to the inhibition of NADPH oxidase.

Human neutrophils [3] = assay: cytochrome c reduction rate (superoxide anion production) by activated neutrophils; type: cell-based
Method: Human neutrophils (2×10^6/mL) were incubated in HBSS with TNF-α at 37° C. for 25 minutes. Cells were stimulated with FMLP or PMA in the presence of cytochrome c (1.2 mg/mL final), and the optical density of the supernatants was determined by spectrophotometry (550 nm). For both PMA or FLMP as PMN activators, the IC50 for DHQ inhibition is around 8 μM.
When activated by opsonized bacteria, zymozan, FMLP (Formyl-Methionyl-Leucyl-Phenylalanine) or PMA (phorbolmyristate acetate), neutrophils undergo an oxidative burst resulting in the production of superoxide anion and subsequent hydrogen peroxide. The oxidative burst is mainly mediated by the NADPH oxidase activation, enzyme responsible of the superoxide anion production. […] This effect may come from either a direct anion superoxide scavenging or from the inhibition of NADPH oxidase activation.

[4] = test system: LPS-stimulated whole blood; details: cited from earlier work
circulating lymphocytes [5] = details: mice, cited from earlier work
circulating lymphocytes [6] = details: human subjects, cited from earlier work

Structure (SMILES): O=C1c2c(O)cc(O)cc2O[C@H](c2ccc(O)c(O)c2)[C@H]1O [DHQ, Dihydroquercetin]
- oxygen consumption of PMN (PMN): strongly inhibits
- cytochrome c reduction (anion superoxide production) (Human neutrophils [1]; DHQ 1 μM): 0.000 dDO/min
- cytochrome c reduction (anion superoxide production) (Human neutrophils [1]; DHQ 10 μM): 0.036 dDO/min
- cytochrome c reduction (anion superoxide production) (Human neutrophils [1]; DHQ 100 μM): 0.086 dDO/min
- effect on the activation of neutrophils (neutrophils): strong inhibitory effect
- T. half (rise) (Human neutrophils [2]; FMLP 10−6 Ml, DHQ 1, 10 or 100 μM, concentration of samples 2-4 not given): 1.55
- inhibition of the ROS production (Human neutrophils [2]; neutrophils activated by FMLP): around 80%
- inhibition of the ROS production (Human neutrophils [2]; neutrophils activated by PMA): around 80%
- cytochrome c reduction (anion superoxide production) (Human neutrophils [3]; +FMLP, DHQ 1 μM): 0.144 dDO/min
- cytochrome c reduction (anion superoxide production) (Human neutrophils [3]; +FMLP, DHQ 10 μM): 0.105 dDO/min
- cytochrome c reduction (anion superoxide production) (Human neutrophils [3]; +FMLP, DHQ 100 μM): 0.040 dDO/min
- cytochrome c reduction (anion superoxide production) (Human neutrophils [3]; +PMA, DHQ 1 μM): 0.110 dDO/min
- cytochrome c reduction (anion superoxide production) (Human neutrophils [3]; +PMA, DHQ 10 μM): 0.070 dDO/min
- cytochrome c reduction (anion superoxide production) (Human neutrophils [3]; +PMA, DHQ 100 μM): 0.021 dDO/min
- IC50 (Human neutrophils [3]; Homo sapiens, Neutrophil, PMA as PMN activator, neutrophils incubated with TNF-α, read-out: IC50 for DHQ inhibition of cytochrome c reduction rate (superoxide anion production)): ~8 µM

Structure (SMILES): O=c1c(O)c(-c2ccc(O)c(O)c2)oc2cc(O)cc(O)c12 [quercetin]
- effect on the activation of neutrophils (neutrophils): strong inhibitory effect
- production of the major inflammatory cytokines TNFα, IL-6, IL-8 and IL-10 [4]: decreases the production

Structure (SMILES): C/C(=N\O)c1nc([C@@H](O)[C@H](O)[C@H](O)CO)c[nH]1 [Compound 2]
- lymphopenia (circulating lymphocytes [5]; single oral doses lower than 30-100 mg/kg): minimal to non-statistically significant effect
- lymphopenia (circulating lymphocytes [5]; single oral doses of 30-100 mg/kg): 40-60%
- depletion of circulating lymphocytes (circulating lymphocytes [5]; single oral doses, 18 h after dosing): up to 60%
- tolerability (circulating lymphocytes [6]; all dose groups): generally well tolerated
- decrease in peripheral lymphocytes (circulating lymphocytes [6]; single ascending dose, highest administered dose of 180 mg): ~50%
